From patent US20090253687A1, “Fused Heterocyclic Compounds and Their Use as Mineralocorticoid Receptor Ligands” (priority 2005, published 2009)

Tested on: not given
Assay: not given
Settings: not given

melting point [°C] | SMILES
228 | O=C1COc2ccc(C3=Cc4ccccc4[S+]([O-])C3c3ccccc3)cc2N1 (stereo not shown) [Example 22, 6-(1-oxido-2-phenyl-2H-thiochromen-3-yl)-2H-1,4-benzoxazin-3(4H)-one]

Target: T1, Human Mineralocorticoid Receptor (hMR) (Homo sapiens, UniProt P08235)
T1 construct: Full-length cDNA was constructed from two fragments of hMR cDNA amplified separately; expressed in transfected cells; host or cells: FreeStyle 293 cells transiently transfected with pMCMVneo-hMR; supernatant of the freeze-thaw lysate after ultracentrifugation
T1 sequence (P08235 1-984): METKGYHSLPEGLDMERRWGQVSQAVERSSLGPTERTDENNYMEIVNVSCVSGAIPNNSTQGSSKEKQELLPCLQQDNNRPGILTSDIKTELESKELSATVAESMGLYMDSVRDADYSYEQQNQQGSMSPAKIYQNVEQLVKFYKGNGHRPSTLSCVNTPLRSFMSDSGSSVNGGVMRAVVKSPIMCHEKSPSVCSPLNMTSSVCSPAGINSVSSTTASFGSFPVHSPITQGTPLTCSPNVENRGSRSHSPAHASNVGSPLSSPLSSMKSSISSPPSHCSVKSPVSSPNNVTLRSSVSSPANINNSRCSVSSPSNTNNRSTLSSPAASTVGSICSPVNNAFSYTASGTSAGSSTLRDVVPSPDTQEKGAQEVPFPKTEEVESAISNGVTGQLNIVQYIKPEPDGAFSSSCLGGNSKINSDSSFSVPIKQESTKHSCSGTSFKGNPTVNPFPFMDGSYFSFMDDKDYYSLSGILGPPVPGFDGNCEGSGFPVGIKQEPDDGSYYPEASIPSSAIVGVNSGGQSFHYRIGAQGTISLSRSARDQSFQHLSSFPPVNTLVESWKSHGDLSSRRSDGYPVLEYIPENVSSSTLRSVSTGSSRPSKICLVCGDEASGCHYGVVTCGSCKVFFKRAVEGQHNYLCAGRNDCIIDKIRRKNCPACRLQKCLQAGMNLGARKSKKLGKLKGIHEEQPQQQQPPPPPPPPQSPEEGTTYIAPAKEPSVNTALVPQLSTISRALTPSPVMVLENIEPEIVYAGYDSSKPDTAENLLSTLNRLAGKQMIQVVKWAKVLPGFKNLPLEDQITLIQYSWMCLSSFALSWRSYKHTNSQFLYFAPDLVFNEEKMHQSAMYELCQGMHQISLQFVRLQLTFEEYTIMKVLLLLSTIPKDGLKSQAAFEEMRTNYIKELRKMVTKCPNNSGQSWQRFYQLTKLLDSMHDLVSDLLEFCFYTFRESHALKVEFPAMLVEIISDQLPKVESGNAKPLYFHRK
Assay: Inhibition of binding of [3H]-aldosterone to hMR (lysate of FreeStyle 293 cells expressing hMR)
Settings: compound at 10^−5 M; 10 nM [3H]-aldosterone; hMR lysate 1.0 mg/ml; 16 hr at 4° C.; read-out: Inhibition rate (at 10^−5 M)
Description: The following procedures described in this Example were carried out according to the methods described in Molecular Cloning—Cold Spring Harbor Laboratory (1989) or protocols specified by manufacturers. (1) Cloning of Human Mineralocorticoid Receptor (hMR) cDNA hMR cDNA was amplified by polymerase chain reaction (PCR) from human kidney cDNA library. Full-length cDNA was constructed from two fragments of hMR cDNA amplified separately. The primers were designed referring to the nucleotide sequence of hMR cDNA reported by Arriza et. al (Science 1987; 237: 268-275). The PCR reactions were carried out using Pyrobest® DNA polymerase (Takara). The PCR products were electrophoresed in agarose gel, and 1.7 kb (region (i)) and 1.5 kb (region (ii)) DNA fragments were recovered. Each DNA fragment was inserted into pCR®4Blunt-TOPO® vector (Invitrogen). The resulting plasmids thus obtained were designated as pB-hMR (i) and pB-hMR (ii). To obtain the full-length hMR cDNA, pB-hMR (i) was digested with XhoI and PvuI, and pB-hMR (ii) was digested with PvuI and KpnI, respectively, and the two cDNA fragments were ligated into pBlueScript®IISK+ vector (Stratagene). The resulting plasmid thus obtained was designated as pB-hMR. (2) Construction of hMR Expression Plasmid pMCMVneo (described in WO03/099793) was digested with XhoI and KpnI, and 5.6 kb fragment was ligated with 2.9 kb hMR cDNA fragment obtained by digestion of pB-hMR (described in above (1)) with XhoI and KpnI. The plasmid thus obtained was designated as pMCMVneo-hMR. (3) Expression of hMR in FreeStyle 293 Cells and Preparation of Cell Lysate FreeStyle 293 cells were inoculated at 1×10^8 cells in 93 ml FreeStyle™ 293 Expression Medium (Invitrogen) in a 500 ml Erlenmeyer flask and cultured at 37° C. under 8% CO2 for 1 hr. The cells were treated with 6.7 ml of the transfection mixture containing 100 μg of pMCMVneo-hMR obtained in above (2) and 133 μl of FreeStyle™ 293 Transfection Reagent (Invitrogen). The transfected cells were cultivated for 48 hr at 37° C. in 8% CO2 atmosphere. The cultivated cells were centrifuged and washed with TEG buffer (10 mM Tris-HCl (pH 7.2), 50 mM EDTA, 10% glycerol), and resuspended in 10 ml TEGM buffer (10 mM Tris-HCl (pH 7.2), 1 mM EDTA, 10% glycerol, 1 mM β-mercaptoethanol, 10 mM sodium molybdate, 1 mM dithiothreitol, 2 tablets/100 ml of protease inhibitor cocktail tablets (Roche)). The cell suspension was frozen with liquid nitrogen and thawed on ice, and ultra-centrifuged at 225,000×g for 20 min at 4° C. The supernatant fraction including hMR (hMR lysate) was collected and stored at −80° C. (4) Measurement of Inhibition Activity Against Binding of hMR and Aldosterone [^3H]-Aldosterone (Amersham Biosciences) as ligand was added at 10 nM to the reaction mixture including test compound at various concentration and hMR lysate (1.0 mg/ml) obtained in above (3) and mixture was filled up to 50.5 μl with TEGM buffer. The reaction mixture was incubated for 16 hr at 4° C. and 35 μl of dextran/gelatin coated charcoal suspension (5% charcoal, 0.5% dextran T-70 (Amersham Biosciences), 0.1% gelatin (SIGMA), 10 mM Tris HCl (pH 7.2), 1 mM EDTA) was added thereto to separate bound and free radioactive aldosterone. The mixture containing charcoal was incubated for 10 min at 4° C. and centrifuged at 910×g for 10 min at 4° C. Radioactivity in 30 μl of the supernatant was measured by TopCount™ (Packard). For the determination of nonspecific binding, cold Aldosterone instead of drug was added to reaction mixture at 100 μM. Specific binding was determined by subtracting nonspecific binding from total binding.

inhibition at 10 µM [%] | SMILES
≥ 70 | O=C1COc2ccc(C3=Nn4cnnc4SC3c3ccccc3)cc2N1 (stereo not shown) [Example 3, 6-(7-phenyl-7H-[1,2,4]triazolo[3,4-b][1,3,4]thiadiazin-6-yl)-2H-1,4-benzoxazin-3(4H)-one]
≥ 70 | CS(=O)(=O)N1CC(c2ccccc2)C(c2ccc3c(c2)NC(=O)CO3)=N1 (stereo not shown) [Example 59, 6-(1-(Methylsulfonyl)-4-phenyl-4,5-dihydro-1H-pyrazol-3-yl)-2H-benzo[b][1,4]oxazin-3(4H)-one]
≥ 70 | O=C1COc2ccc(C3=Cc4ccccc4OC3c3ccccc3)cc2N1 (stereo not shown) [Example 19, 6-(2-Phenyl-2H-chromen-3-yl)-2H-1,4-benzoxazin-3(4H)-one]
≥ 70 | O=C1COc2ccc(C3=Cc4ccccc4SC3c3ccc(F)cc3)cc2N1 (stereo not shown) [Example 158, 6-[2-(4-fluorophenyl)-2H-thiochromen-3-yl]-2H-1,4-benzoxazin-3(4H)-one]
≥ 70 | O=C1COc2ccc(C3=NN(C(=O)C(F)(F)F)CC3c3ccccc3)cc2N1 (stereo not shown) [Example 57, 6-(4-Phenyl-1-(2,2,2-trifluoroacetyl)-4,5-dihydro-1H-pyrazol-3-yl)-2H-benzo[b][1,4]oxazin-3(4H)-one]
≥ 70 | O=C1COc2ccc(-c3cc(C(F)(F)F)nn3-c3ccccc3)cc2N1 [Example 96, 6-(1-Phenyl-3-(trifluoromethyl)-1H-pyrazol-5-yl)-2H-benzo[b][1,4]oxazin-3(4H)-one]

The remaining lines, values behind:

SMILES | inhibition at 10 µM [%]
Cc1cc(Cl)ccc1-n1nc(C(F)(F)F)cc1-c1ccc2c(c1)NC(=O)CO2 [Example 86, 6-(1-(4-chloro-2-methylphenyl)-3-(trifluoromethyl)-1H-pyrazol-5-yl)-2H-benzo[b][1,4]oxazin-3(4H)-one] | ≥ 70
O=C1COc2ccc(-c3cc(C(F)(F)F)nn3-c3ccc(Cl)cc3)cc2N1 [Example 74, 6-(1-(4-Chlorophenyl)-3-(trifluoromethyl)-1H-pyrazol-5-yl)-2H-benzo[b][1,4]oxazin-3(4H)-one] | ≥ 70
O=C1COc2ccc(C3=C(c4ccc(F)cc4)C(=O)N(c4ccc(F)cc4)C3)cc2N1 [Example 70, 6-(1,4-Bis(4-fluorophenyl)-5-oxo-2,5-dihydro-1H-pyrrol-3-yl)-2H-benzo[b][1,4]oxazin-3(4H)-one] | ≥ 70
O=C1COc2c(Cl)cc(C3=Cn4ccnc4SC3c3ccc(F)cc3)cc2N1 (stereo not shown) [Example 118, 8-chloro-6-[7-(4-fluorophenyl)-7H-imidazo[2,1-b][1,3]thiazin-6-yl]-2H-1,4-benzoxazin-3(4H)-one] | ≥ 70
Cc1cc(F)ccc1-n1nc(C(F)(F)F)cc1-c1cc(F)c2c(c1)NC(=O)CO2 [Example 108, 8-fluoro-6-(1-(4-fluoro-2-methylphenyl)-3-(trifluoromethyl)-1H-pyrazol-5-yl)-2H-benzo[b][1,4]oxazin-3(4H)-one] | ≥ 70
CCCC1Sc2nncn2N=C1c1ccc2c(c1)NC(=O)CO2 (stereo not shown) [Example 31, 6-(7-Propyl-7H-[1,2,4]triazolo[3,4-b][1,3,4]thiadiazin-6-yl)-2H-1,4-benzoxazin-3(4H)-one] | ≥ 70
Cc1ccc(C)c(-n2nc(C(F)(F)F)cc2-c2ccc3c(c2)NC(=O)CO3)c1 [Example 93, 6-(1-(2,5-dimethylphenyl)-3-(trifluoromethyl)-1H-pyrazol-5-yl)-2H-benzo[b][1,4]oxazin-3(4H)-one] | ≥ 70
O=C1COc2ccc(-c3cc(C(F)(F)C(F)(F)F)nn3-c3ccc(F)cc3)cc2N1 [Example 100, 6-(1-(4-Fluorophenyl)-3-(perfluoroethyl)-1H-pyrazol-5-yl)-2H-benzo[b][1,4]oxazin-3(4H)-one] | ≥ 70
Cc1cc(F)ccc1-n1nc(C(C)(F)F)cc1-c1cc(C)c2c(c1)NC(=O)CO2 [Example 310, 6-(3-(1,1-Difluoroethyl)-1-(4-fluoro-2-methylphenyl)-1H-pyrazol-5-yl)-8-methyl-2H-benzo[b][1,4]oxazin-3(4H)-one] | ≥ 70
